# Reference: patent US11653679B2, “High-purity steviol glycosides” (PureCircle Sdn Bhd, priority 2014, dated 2023)
# How the values were obtained:
# [1] = Solubility of reb M in water and solvents; type: physicochemical
# Description: Other properties of the pure reb M compound include a melting point of 249-250° C., and a specific rotation of [α]D^25−19.0° in 50% ethanol (C=1.0). The solubility of reb Min water is around 0.3%, and increases with an increase in temperature.
# Reb M is soluble in diluted solutions of methanol, ethanol, n-propanol, and isopropanol. However, it is insoluble in acetone, benzene, chloroform, and ether.
# [2] = Heat and pH stability of reb M; type: physicochemical
# [3] = Sweetness of reb M compared to a 10% sucrose solution
# Excerpt: The high purity reb M obtained in this invention, having a molecular weight of 1291.29, a molecular formula of C56H90O33, CAS registry number 1220616-44-3, and the structure presented in FIG. 1, is in the form of a white and odorless powder. The compound is about 200 times sweeter than sugar when compared to a 10% sucrose solution.
# [4] = Transformation of Stevioside to Rebaudioside A with UGT76G1 lysate (Examples 4, 13), HPLC; type: biochemical; details: in-vivo produced UGT76G1 thawed lysate, 0.5 mM Stevioside, 30° C., HPLC (CAD)
# Description: The total volume of the reaction was 5.0 mL with the following composition: 50 mM sodium phosphate buffer pH 7.2, 3 mM MgCl2, 2.5 mM UDP-glucose, 0.5 mM Stevioside and 500 μl, of UGT76G1 thawed lysate. The reactions were run at 30° C. on an orbitary shaker at 135 rpm. For each sample, 460 μL of the reaction mixture was quenched with 40 μL of 2N H2SO4 and 420 μL of methanol/water (6/4). The samples were immediately centrifuged and kept at 10° C. before analysis by HPLC (CAD).
# (§1) Activity tests were performed on a 5 mL scale with 500 μL of thawed lysate for the transformation of Stevioside to Rebaudioside A and Rebaudioside D to Rebaudioside M using 0.5 mM of substrate, 2.5 mM of UDP-Glucose and 3 mM MgCl2 in 50 mM Sodium Phosphate buffer at pH 7.2. Samples were taken and analyzed by HPLC.
# [5] = Transformation of Rebaudioside D to Rebaudioside M with UGT76G1 (Examples 6, 13), HPLC; type: biochemical; details: after 120 h, in-vitro produced UGT76G1, 0.5 mM Rebaudioside D, 30° C.
# Description: The total volume of the reaction was 2 mL with the following composition: 50 mM sodium phosphate buffer pH 7.2, 3 mM MgCl2, 3.8 mM UDP-glucose, 0.5 mM Rebaudioside D and 180 μL of in-vitro produced UGT76G1. The reactions were run at 30° C. on an orbitary shaker at 135 rpm. For each sample, 400 μL of reaction mixture was quenched with 40 μL of 2N H2SO4 and 360 μL of 60% MeOH. After centrifugation, the supernatant was analyzed by HPLC (CAD).
# as §1
# [6] = Conversion of Rebaudioside E to Rebaudioside D with UGT76G1 lysate (Example 25); type: biochemical; details: UGT76G1 thawed lysate, 0.5 mM Rebaudioside E, pH 7.5, 30° C.
# Description: The total volume of the reaction was 5.0 mL with the following composition: 100 mM potassium phosphate buffer pH 7.5, 3 mM MgCl2, 2.5 mM UDP-glucose, 0.5 mM Rebaudioside E and 500 μL of UGT76G1 thawed lysate (UGT76G1 gene was cloned in pET30a+ vector and expressed in E. coli BL21 (DE3)). The reactions were run at 30° C. on an orbitary shaker at 135 rpm. For sampling 300 μL of the reaction mixture was quenched with 30 μL of 2N H2SO4 and 270 μL of methanol/water (6/4). The samples were immediately centrifuged and kept at 10° C. before analysis by HPLC (CAD detection).
# [7] = Catalytic reaction Rebaudioside A to Rebaudioside D with in-vitro produced UGT91D2 (Example 5); type: biochemical; details: after 120 h, in-vitro produced UGT91D2, 0.1 mM Rebaudioside A, 30° C.
# Description: The total volume of the reaction was 0.5 mL with the following composition: 50 mM sodium phosphate buffer pH 7.2, 3 mM MgCl2, 3.8 mM UDP-glucose, 0.1 mM Rebaudioside A and 180 μL of in-vitro produced UGT91D2. The reactions were run at 30° C. on an orbitary shaker at 135 rpm. For each sample, 450 μl of reaction mixture was quenched with 45 μL of 2N H2SO4 and 405 μL of 60% MeOH. After centrifugation, the supernatant was analyzed by HPLC (CAD). HPLC indicated a 4.7% conversion of rebaudioside A to rebaudioside D after 120 h.
molecule,measurement,setting,value
"C=C1C[C@@]23CC[C@H]4[C@@](C)(CCC[C@@]4(C)C(=O)O[C@@H]4O[C@H](CO)[C@@H](O)[C@H](O[C@@H]5O[C@H](CO)[C@@H](O)[C@H](O)[C@H]5O)[C@H]4O[C@@H]4O[C@H](CO)[C@@H](O)[C@H](O)[C@H]4O)[C@@H]2CC[C@]1(O[C@@H]1O[C@H](CO)[C@@H](O)[C@H](O[C@@H]2O[C@H](CO)[C@@H](O)[C@H](O)[C@H]2O)[C@H]1O[C@@H]1O[C@H](CO)[C@@H](O)[C@H](O)[C@H]1O)C3 [reb M, Rebaudioside M]","solubility in acetone, benzene, chloroform, and ether",[1],insoluble
same,"solubility in diluted solutions of methanol, ethanol, n-propanol, and isopropanol",[1],soluble
same,solubility in water,[1]; increases with an increase in temperature,around 0.3%
same,heat and pH stability,[2],heat and pH-stable
same,sweetness relative to sugar,[3],about 200 times sweeter than sugar
"UGT76G1: UDP-glucosyltransferase UGT76G1 [Stevia rebaudiana], Genbank AAR06912.1, SEQ ID NO:11 (protein, listed as Stevia rebaudiana) MENKTETTVRRRRRIILFPVPFQGHINPILQLANVLYSKGFSITIFHTNFNKPKTSNYPHFTFRFILDNDPQDERISNLPTHGPLAGMRIPIINEHGADELRRELELLMLASEEDEEVSCLITDALWYFAQSVADSLNLRRLVLMTSSLFNFHAHVSLPQFDELGYLDPDDKTRLEEQASGFPMLKVKDIKSAYSNWQILKEILGKMIKQTKASSGVIWNSFKELEESELETVIREIPAPSFLIPLPKHLTASSSSLLDHDRTVFQWLDQQPPSSVLYVSFGSTSEVDEKDFLEIARGLVDSKQSFLWVVRPGFVKGSTWVEPLPDGFLGERGRIVKWVPQQEVLAHGAIGAFWTHSGWNSTLESVCEGVPMIFSDFGLDQPLNARYMSDVLKVGVYLENGWERGEIANAIRRVMVDEEGEYIRQNARVLKQKADVSLMKGGSSYESLESLVSYISSL",conversion of stevioside to rebaudioside A,[4],almost complete conversion
same,conversion of rebaudioside D to rebaudioside M,[5],80%
same,conversion of Rebaudioside E to Rebaudioside D,[6],complete conversion
"UGT91D2: UDP-glucosyltransferase, Genbank accession no. ACE87855.1 (protein, UniProt B3VI56 1-473, looked up) UDP-glycosyltransferase 91D2: MATSDSIVDDRKQLHVATFPWLAFGHILPYLQLSKLIAEKGHKVSFLSTTRNIQRLSSHISPLINVVQLTLPRVQELPEDAEATTDVHPEDIPYLKKASDGLQPEVTRFLEQHSPDWIIYDYTHYWLPSIAASLGISRAHFSVTTPWAIAYMGPSADAMINGSDGRTTVEDLTTPPKWFPFPTKVCWRKHDLARLVPYKAPGISDGYRMGLVLKGSDCLLSKCYHEFGTQWLPLLETLHQVPVVPVGLLPPEVPGDEKDETWVSIKKWLDGKQKGSVVYVALGSEVLVSQTEVVELALGLELSGLPFVWAYRKPKGPAKSDSVELPDGFVERTRDRGLVWTSWAPQLRILSHESVCGFLTHCGSGSIVEGLMFGHPLIMLPIFGDQPLNARLLEDKQVGIEIPRNEEDGCLTKESVARSLRSVVVEKEGEIYKANARELSKIYNDTKVEKEYVSQFVDYLEKNTRAVAIDHES",conversion of rebaudioside A to rebaudioside D,[7],4.7%
